Test results as given in publication PMC6171417, “Carbonic anhydrase inhibition with a series of novel benzenesulfonamide-triazole conjugates” (Journal of Enzyme Inhibition and Medicinal Chemistry, 2018).

Tests used:
Assay in all cases: cells
MDA-MB-468 = system: MDA-MB-468; set-up: species or system NCI human tumour cell line panel; NCI one-dose anti-proliferative screen, human tumour cell line panel, growth inhibition percent (GI%); settings: Homo sapiens, MDA-MB-468; growth inhibition (GI%), single dose
OVCAR-4 = system: OVCAR-4; set-up: species or system NCI human tumour cell line panel; NCI one-dose anti-proliferative screen, human tumour cell line panel, growth inhibition percent (GI%); settings: Homo sapiens, OVCAR-4; growth inhibition (GI%), single dose
SW-620 = system: SW-620; set-up: species or system NCI human tumour cell line panel; NCI one-dose anti-proliferative screen, human tumour cell line panel, growth inhibition percent (GI%); settings: Homo sapiens, SW-620; growth inhibition (GI%), single dose
SF-268 = system: SF-268; set-up: species or system NCI human tumour cell line panel; NCI one-dose anti-proliferative screen, human tumour cell line panel, growth inhibition percent (GI%); settings: Homo sapiens, SF-268; growth inhibition (GI%), single dose
MDA-MB-231/ATCC = system: MDA-MB-231/ATCC; set-up: species or system NCI human tumour cell line panel; NCI one-dose anti-proliferative screen, human tumour cell line panel, growth inhibition percent (GI%); settings: Homo sapiens, MDA-MB-231; growth inhibition (GI%), single dose
M14 = system: M14; set-up: species or system NCI human tumour cell line panel; NCI one-dose anti-proliferative screen, human tumour cell line panel, growth inhibition percent (GI%); settings: Homo sapiens, M14; growth inhibition (GI%), single dose
IGROV1 = system: IGROV1; set-up: species or system NCI human tumour cell line panel; NCI one-dose anti-proliferative screen, human tumour cell line panel, growth inhibition percent (GI%); settings: Homo sapiens, IGROV-1; growth inhibition (GI%), single dose
COLO 205 = system: COLO 205; set-up: species or system NCI human tumour cell line panel; NCI one-dose anti-proliferative screen, human tumour cell line panel, growth inhibition percent (GI%); settings: Homo sapiens, COLO 205; growth inhibition (GI%), single dose
TK-10 = system: TK-10; set-up: species or system NCI human tumour cell line panel; NCI one-dose anti-proliferative screen, human tumour cell line panel, growth inhibition percent (GI%); settings: Homo sapiens, TK-10; growth inhibition (GI%), single dose
SK-MEL-2 = system: SK-MEL-2; set-up: species or system NCI human tumour cell line panel; NCI one-dose anti-proliferative screen, human tumour cell line panel, growth inhibition percent (GI%); settings: Homo sapiens, SK-MEL-2; growth inhibition (GI%), single dose
SF-295 [1] = system: SF-295; set-up: species or system NCI human tumour cell line panel; NCI one-dose anti-proliferative screen, human tumour cell line panel, growth inhibition percent (GI%); settings: Homo sapiens, SF-295; growth inhibition (GI%), single dose
HCT-15 = system: HCT-15; set-up: species or system NCI human tumour cell line panel; NCI one-dose anti-proliferative screen, human tumour cell line panel, growth inhibition percent (GI%); settings: Homo sapiens, HCT-15; growth inhibition (GI%), single dose
NCI-H460 = system: NCI-H460; set-up: species or system NCI human tumour cell line panel; NCI one-dose anti-proliferative screen, human tumour cell line panel, growth inhibition percent (GI%); settings: Homo sapiens, NCI-H460; growth inhibition (GI%), single dose
OVCAR-5 = system: OVCAR-5; set-up: species or system NCI human tumour cell line panel; NCI one-dose anti-proliferative screen, human tumour cell line panel, growth inhibition percent (GI%); settings: Homo sapiens, OVCAR-5; growth inhibition (GI%), single dose
HCC-2998 = system: HCC-2998; set-up: species or system NCI human tumour cell line panel; NCI one-dose anti-proliferative screen, human tumour cell line panel, growth inhibition percent (GI%); settings: Homo sapiens, HCC 2998; growth inhibition (GI%), single dose
SK-MEL-28 = system: SK-MEL-28; set-up: species or system NCI human tumour cell line panel; NCI one-dose anti-proliferative screen, human tumour cell line panel, growth inhibition percent (GI%); settings: Homo sapiens, SK-MEL-28; growth inhibition (GI%), single dose
SR = system: SR; set-up: species or system NCI human tumour cell line panel; settings: Homo sapiens, SR; growth inhibition (GI%), single dose
SF-295 [2] = system: SF-295; set-up: species or system NCI human tumour cell line panel; settings: Homo sapiens, SF-295; growth inhibition (GI%), single dose
RXF 393 = system: RXF 393; set-up: species or system NCI human tumour cell line panel; NCI one-dose anti-proliferative screen, human tumour cell line panel, growth inhibition percent (GI%); settings: Homo sapiens, RXF 393; growth inhibition (GI%), single dose
786-0 = system: 786-0; set-up: species or system NCI human tumour cell line panel; NCI one-dose anti-proliferative screen, human tumour cell line panel, growth inhibition percent (GI%); settings: Homo sapiens, 786-0; growth inhibition (GI%), single dose
DU-145 = system: DU-145; set-up: species or system NCI human tumour cell line panel; NCI one-dose anti-proliferative screen, human tumour cell line panel, growth inhibition percent (GI%); settings: Homo sapiens, DU-145; growth inhibition (GI%), single dose

Row | SMILES | inhibition at 10 µM (MDA-MB-468) [%] | inhibition at 10 µM (OVCAR-4) [%] | inhibition at 10 µM (SW-620) [%] | inhibition at 10 µM (SF-268) [%] | inhibition at 10 µM (MDA-MB-231/ATCC) [%] | inhibition at 10 µM (M14) [%] | inhibition at 10 µM (IGROV1) [%] | inhibition at 10 µM (SK-MEL-2) [%] | inhibition at 10 µM (SF-295 [1]) [%] | inhibition at 10 µM (HCT-15) [%] | also measured
1 | Nc1nc(=S)[nH]c2c1nnn2-c1ccc(S(N)(=O)=O)cc1 [compound 18, 4-(7-amino-5-thioxo-4,5-dihydro-3H-[1,2,3]triazolo[4,5-d]pyrimidin-3-yl)benzenesulfonamide] | 3.5 | 7.9 | 4.3 | 1.5 | 14.8 |  |  |  |  |  | 
2 | N#Cc1nnn(-c2ccc(S(N)(=O)=O)cc2)c1NS(=O)(=O)c1ccccc1 [compound 11, N-(4-cyano-1-(4-sulfamoylphenyl)-1H-1,2,3-triazol-5-yl)benzenesulfonamide] |  |  | 2.3 |  |  | 3.3 | 3.3 |  |  |  | 
3 | N#Cc1nnn(-c2ccc(S(N)(=O)=O)cc2)c1N [compound 3, 3] |  | 4.1 | 5.1 | 2.8 |  | 2.7 |  |  |  |  | inhibition at 10 µM (COLO 205): 5.1%; inhibition at 10 µM (TK-10): 9.2%
4 | CN(C)c1ccc(-c2nc3c(nnn3-c3ccc(S(N)(=O)=O)cc3)c(N)c2C#N)cc1 [compound 17, 4-(7-amino-6-cyano-5-(4-(dimethylamino)phenyl)-3H-[1,2,3]triazolo[4,5-b]pyridin-3-yl)benzenesulfonamide] | 3.2 | 0.8 | 2.7 | 3.9 | 18 | 3.5 | 12.1 | 2.3 | 3.1 | 1.2 | inhibition at 10 µM (COLO 205): 17%; inhibition at 10 µM (NCI-H460): 0.9%; inhibition at 10 µM (OVCAR-5): 3.4%; inhibition at 10 µM (HCC-2998): 3.9%
5 | CCn1c(=S)[nH]c2c(nnn2-c2ccc(S(N)(=O)=O)cc2)c1=N [compound 20, 4-(6-ethyl-7-imino-5-thioxo-4,5,6,7-tetrahydro-3H-[1,2,3]triazolo[4,5-d]pyrimidin-3-yl)benzenesulfonamide] |  |  |  |  |  |  |  | 8.2 |  |  | inhibition at 10 µM (SK-MEL-28): 0%; inhibition at 10 µM (HCC-2998): 2.2%
6 | N#Cc1nnn(-c2ccc(S(N)(=O)=O)cc2)c1NC(=O)CCl [compound 5, 5] |  |  |  |  |  |  |  |  |  |  | inhibition at 10 µM (SR): 4.1%; inhibition at 10 µM (SF-295 [2]): 1.8%
7 | N#Cc1c(-c2ccc(Cl)cc2)nc2c(nnn2-c2ccc(S(N)(=O)=O)cc2)c1N [compound 16, 4-(7-amino-5-(4-chlorophenyl)-6-cyano-3H-[1,2,3]triazolo[4,5-b]pyridin-3-yl)benzenesulfonamide] |  | 21.6 |  | 5.4 | 24.2 |  | 16.4 |  | 5.7 | 1.6 | inhibition at 10 µM (RXF 393): 17.8%
8 | N#Cc1nnn(-c2ccc(S(N)(=O)=O)cc2)c1/N=C/c1ccc(Cl)cc1 [compound 9, 9] |  |  |  |  |  |  |  |  | 0.3 | 4.3 | inhibition at 10 µM (TK-10): 7.6%; inhibition at 10 µM (786-0): 6.1%; inhibition at 10 µM (DU-145): 1%
9 | N#Cc1nnn(-c2ccc(S(N)(=O)=O)cc2)c1NCC(=O)c1ccccc1 [compound 7, 7] | 3.3 | 10.2 | 2.8 | 6.5 | 4.9 | 2.6 | 0.5 | 2.2 |  | 1.7 | 
